Patent US20080274913A1, “Multiplex Array Useful for Assaying Protein-Protein Interaction” (priority 2005, published 2008)
Read-outs that look alike come from different tables or passages of the source. Values belong to the compound of their own block, whether it stands above or below them.

Assays:
ADRB2 [1] = biological target: T1, ADRB2 (Homo sapiens, UniProt P07550); format: cell-based; conditions: ADRB2-tTA with low efficiency cleavage site; clone 41 cells
ADRA2C = biological target: T2, ADRA2C (Homo sapiens, UniProt P18825)
T2 sequence (P18825 1-462): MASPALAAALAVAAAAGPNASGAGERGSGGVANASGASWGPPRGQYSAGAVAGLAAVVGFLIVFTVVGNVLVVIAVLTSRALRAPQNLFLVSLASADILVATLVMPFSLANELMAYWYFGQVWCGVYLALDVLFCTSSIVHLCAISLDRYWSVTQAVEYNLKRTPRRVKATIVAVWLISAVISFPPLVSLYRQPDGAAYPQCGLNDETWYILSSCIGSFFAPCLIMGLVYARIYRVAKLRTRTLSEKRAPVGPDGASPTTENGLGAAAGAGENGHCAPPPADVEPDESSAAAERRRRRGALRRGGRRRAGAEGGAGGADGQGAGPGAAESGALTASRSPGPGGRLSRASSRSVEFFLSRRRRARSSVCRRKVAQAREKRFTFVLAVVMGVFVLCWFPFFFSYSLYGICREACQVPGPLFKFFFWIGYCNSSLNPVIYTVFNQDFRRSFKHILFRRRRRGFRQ

ADRB1 = ADRB1 (Homo sapiens, UniProt P08588); conditions: for inhibition of receptor response by antagonist: FIG. 11F
ADRB1, sequence (P08588 whole entry): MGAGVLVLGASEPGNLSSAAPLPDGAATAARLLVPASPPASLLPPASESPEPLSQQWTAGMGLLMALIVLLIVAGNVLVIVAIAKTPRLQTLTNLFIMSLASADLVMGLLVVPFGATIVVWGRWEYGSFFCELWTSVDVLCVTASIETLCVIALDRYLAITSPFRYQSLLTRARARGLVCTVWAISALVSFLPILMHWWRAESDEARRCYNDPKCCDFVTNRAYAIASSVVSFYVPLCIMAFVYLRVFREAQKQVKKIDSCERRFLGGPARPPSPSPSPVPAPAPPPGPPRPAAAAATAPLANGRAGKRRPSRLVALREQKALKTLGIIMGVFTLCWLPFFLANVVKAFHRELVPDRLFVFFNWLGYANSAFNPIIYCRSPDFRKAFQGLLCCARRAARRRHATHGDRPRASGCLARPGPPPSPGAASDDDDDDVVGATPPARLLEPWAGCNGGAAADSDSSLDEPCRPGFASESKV

ADRB2 [2] = biological target: T1, ADRB2
ADRA2A = biological target: T3, ADRA2A (Homo sapiens, UniProt P08913); conditions: antagonist experiments, FIGS. 11F to 11J
T3 sequence (P08913 1-465): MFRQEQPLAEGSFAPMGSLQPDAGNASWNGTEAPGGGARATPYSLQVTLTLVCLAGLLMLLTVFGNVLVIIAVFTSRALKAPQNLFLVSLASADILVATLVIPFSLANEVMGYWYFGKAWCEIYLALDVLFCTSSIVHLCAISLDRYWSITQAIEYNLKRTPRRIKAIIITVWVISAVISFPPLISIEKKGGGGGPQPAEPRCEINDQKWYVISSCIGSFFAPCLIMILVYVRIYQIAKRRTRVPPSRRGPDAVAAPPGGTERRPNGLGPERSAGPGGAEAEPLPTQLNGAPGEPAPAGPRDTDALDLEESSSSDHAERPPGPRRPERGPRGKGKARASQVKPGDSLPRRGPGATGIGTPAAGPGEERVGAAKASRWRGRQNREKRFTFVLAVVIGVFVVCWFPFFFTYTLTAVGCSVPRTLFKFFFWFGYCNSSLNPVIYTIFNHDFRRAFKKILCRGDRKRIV

ADRA2B = biological target: T4, ADRA2B (Homo sapiens, UniProt P18089); conditions: antagonist experiments, FIGS. 11F to 11J
T4 sequence (P18089 1-450): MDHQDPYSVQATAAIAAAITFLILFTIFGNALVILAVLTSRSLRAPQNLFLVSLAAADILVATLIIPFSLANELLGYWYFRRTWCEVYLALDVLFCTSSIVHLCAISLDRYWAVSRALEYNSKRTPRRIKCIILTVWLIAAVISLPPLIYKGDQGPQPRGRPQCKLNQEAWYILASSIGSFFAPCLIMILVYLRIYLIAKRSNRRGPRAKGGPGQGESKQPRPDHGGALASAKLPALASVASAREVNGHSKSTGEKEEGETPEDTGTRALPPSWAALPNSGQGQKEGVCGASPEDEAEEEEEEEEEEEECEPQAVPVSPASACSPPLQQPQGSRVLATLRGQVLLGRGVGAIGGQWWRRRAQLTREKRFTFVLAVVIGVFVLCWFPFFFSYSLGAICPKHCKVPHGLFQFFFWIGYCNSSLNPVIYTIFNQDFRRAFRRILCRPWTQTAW

[3] = biological target: dopamine 2 receptor (DRD2) (Homo sapiens, UniProt P14416); conditions: 10 μM, medium efficiency cleavage site
dopamine 2 receptor (DRD2), sequence (P14416 whole entry): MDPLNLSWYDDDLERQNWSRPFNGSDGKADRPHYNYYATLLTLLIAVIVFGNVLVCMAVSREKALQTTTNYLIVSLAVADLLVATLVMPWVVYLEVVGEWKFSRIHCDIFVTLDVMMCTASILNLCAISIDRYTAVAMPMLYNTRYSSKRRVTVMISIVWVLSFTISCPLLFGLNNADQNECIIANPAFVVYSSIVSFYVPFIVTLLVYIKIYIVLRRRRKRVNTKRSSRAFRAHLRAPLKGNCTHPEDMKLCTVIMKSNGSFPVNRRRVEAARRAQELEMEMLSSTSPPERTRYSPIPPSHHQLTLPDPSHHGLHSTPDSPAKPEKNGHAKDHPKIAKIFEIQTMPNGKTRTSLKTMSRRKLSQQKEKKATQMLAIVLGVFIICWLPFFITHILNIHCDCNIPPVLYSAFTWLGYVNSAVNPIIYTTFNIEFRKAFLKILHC

ADRB2 [4] = biological target: T1, ADRB2; conditions: 1 μM each agonist; mixed clone 41 and clone 1H10 cells; about 24 hours
DRD2 [5] = biological target: T5, DRD2 (Homo sapiens, UniProt P14416); conditions: 10 μM; DRD2-AVPR2 Tail-tTA, low efficiency cleavage site
DRD2 [6] = biological target: DRD2 (Homo sapiens, UniProt P14416+P30550); conditions: μM dopamine; DRD2-GRPR 42aa Tail-tTA, low efficiency cleavage site
DRD2 [7] = biological target: T5, DRD2; conditions: 1 μM each agonist; mixed clone 41 and clone 1H10 cells; about 24 hours
ADRA1A = ADRA1A (Homo sapiens, UniProt P35348); conditions: 10 μM, low efficiency cleavage site
[8] = biological target: serotonin receptor 1a (HTR1A) (Homo sapiens, UniProt P08908); format: cell-based; conditions: 10 μM; low efficiency cleavage site
[9] = biological target: DRD2-GRPR 42aa Tail-tTA fusion construct containing the low efficiency cleavage site (UniProt P14416); test: cell-based or functional assay
DRD2-GRPR 42aa Tail-tTA fusion construct containing the low efficiency cleavage site, sequence (P14416 other isoform, or with tags, fused parts or gaps): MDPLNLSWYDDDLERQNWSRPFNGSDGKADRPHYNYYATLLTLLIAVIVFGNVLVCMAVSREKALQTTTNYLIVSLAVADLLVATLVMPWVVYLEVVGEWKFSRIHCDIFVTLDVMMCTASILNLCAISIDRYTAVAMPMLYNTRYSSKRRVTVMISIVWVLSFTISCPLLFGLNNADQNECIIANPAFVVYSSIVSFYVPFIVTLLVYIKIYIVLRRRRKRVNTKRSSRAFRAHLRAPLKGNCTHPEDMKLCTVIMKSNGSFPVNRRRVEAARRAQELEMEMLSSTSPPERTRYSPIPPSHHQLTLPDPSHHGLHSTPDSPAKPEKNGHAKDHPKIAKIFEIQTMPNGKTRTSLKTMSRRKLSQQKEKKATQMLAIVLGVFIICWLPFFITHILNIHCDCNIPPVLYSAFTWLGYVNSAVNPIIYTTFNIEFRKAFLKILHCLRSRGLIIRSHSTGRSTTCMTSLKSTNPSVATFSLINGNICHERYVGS

[10] = biological target: T6, human Type I Interferon Receptor (Homo sapiens, UniProt P17181+P48551); test: IFNAR1-tTA / IFNAR2.2-TEV luciferase reporter assay in HTL5B8.1 cells; format: cell-based; conditions: 5000 U/ml, 18-20 hours
T6 sequence (P17181 28-557): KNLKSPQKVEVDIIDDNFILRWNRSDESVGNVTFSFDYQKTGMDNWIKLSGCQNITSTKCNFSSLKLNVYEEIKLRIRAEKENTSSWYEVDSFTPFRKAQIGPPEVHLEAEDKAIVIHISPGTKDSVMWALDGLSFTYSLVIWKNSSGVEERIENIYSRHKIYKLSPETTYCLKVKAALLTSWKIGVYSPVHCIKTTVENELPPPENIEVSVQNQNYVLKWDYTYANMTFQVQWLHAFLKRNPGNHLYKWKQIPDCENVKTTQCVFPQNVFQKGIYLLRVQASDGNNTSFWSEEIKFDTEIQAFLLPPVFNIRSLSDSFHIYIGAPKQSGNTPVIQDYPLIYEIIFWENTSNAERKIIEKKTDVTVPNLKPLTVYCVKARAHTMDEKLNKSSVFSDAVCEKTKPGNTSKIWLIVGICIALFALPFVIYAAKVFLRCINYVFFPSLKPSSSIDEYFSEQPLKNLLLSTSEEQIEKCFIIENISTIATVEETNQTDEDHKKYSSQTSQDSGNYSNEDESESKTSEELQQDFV
T6 sequence (P48551 27-515): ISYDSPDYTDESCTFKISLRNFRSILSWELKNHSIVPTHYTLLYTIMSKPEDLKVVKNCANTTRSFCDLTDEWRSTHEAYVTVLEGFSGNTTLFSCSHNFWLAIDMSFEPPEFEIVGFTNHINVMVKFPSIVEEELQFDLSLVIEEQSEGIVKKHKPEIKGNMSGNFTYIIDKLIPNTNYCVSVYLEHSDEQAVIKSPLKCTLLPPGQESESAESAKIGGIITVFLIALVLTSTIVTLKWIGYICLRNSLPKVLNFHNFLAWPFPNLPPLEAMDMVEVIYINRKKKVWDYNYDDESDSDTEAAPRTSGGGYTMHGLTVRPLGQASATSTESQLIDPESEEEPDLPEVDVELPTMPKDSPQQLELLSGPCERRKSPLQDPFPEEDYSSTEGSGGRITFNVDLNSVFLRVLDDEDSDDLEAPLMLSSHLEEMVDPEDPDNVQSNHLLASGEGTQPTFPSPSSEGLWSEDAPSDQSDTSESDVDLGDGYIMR

[11] = biological target: T6, human Type I Interferon Receptor; test: IFNAR1-GAL4-NF-κB / IFNAR2.2-TEV luciferase reporter assay in CHO-K1 cells; format: cell-based; parameters: expressed in transfected cells; host or cells: CHO-K1; CMV-STAT1, CMV-STAT2 and pFR-Luc co-transfected
[12] = biological target: chemokine (C-C motif) receptor 5 (CCR5) (Homo sapiens, UniProt P51681); test: CCR5-tTA reporter assay in clone 34 cells; format: cell-based; conditions: 1 μg/ml; low efficiency cleavage site
Text: α Constructs were also made to establish an assay for the G protein coupled chemokine (C—C motif) receptor 5 (CCR5). The CCR5 coding region (Genbank Accession Number: NM_000579) (SEQ ID NO: 32) was modified to place Not I site at the 5′ end and replace the stop codon with a BamHI site using PCR with the primers
The first modified coding region was cut with ClaI and BamHI and the second was cut with BsaI and ClaI. Both fragments were ligated into the AVPR2-tTA constructs described supra, which had been cut with EcoRI and BamHI. This replaced the entire coding sequence of AVPR2 with the coding sequence of CCR5.
Assays were carried out using 1 μg/ml “Regulated on Activation, Normal T-Cell Expressed and Secreted” (RANTES), a known agonist for CCR5.

[13] = biological target: CCR5-tTA fusion construct containing the low efficiency cleavage site (UniProt P51681); test: cell-based or functional assay
CCR5-tTA fusion construct containing the low efficiency cleavage site, sequence (P51681 whole entry, the tested form may be a part): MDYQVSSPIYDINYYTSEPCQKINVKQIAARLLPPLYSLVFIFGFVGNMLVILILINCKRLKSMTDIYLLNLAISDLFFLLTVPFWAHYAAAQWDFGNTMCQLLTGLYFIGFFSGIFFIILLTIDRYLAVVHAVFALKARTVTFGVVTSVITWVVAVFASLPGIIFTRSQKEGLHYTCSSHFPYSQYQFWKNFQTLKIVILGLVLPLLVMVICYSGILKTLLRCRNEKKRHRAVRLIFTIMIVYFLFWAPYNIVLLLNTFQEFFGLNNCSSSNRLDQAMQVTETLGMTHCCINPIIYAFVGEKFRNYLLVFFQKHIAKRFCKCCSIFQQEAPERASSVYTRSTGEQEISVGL

[14] = biological target: EGFR-TEV-NIa-Pro cleavage (Leu)-tTA (human) (UniProt P00533); test: cell-based or functional assay
[15] = biological target: epidermal growth factor receptor (EGFR) (Homo sapiens, UniProt P00533); test: EGFR-tTA / PLC Gamma1-TEV luciferase reporter assay in HTL5B8.1 cells; format: cell-based; conditions: 100 ng/ml; six hours
[16] = biological target: human Type I Interferon Receptor (IFNAR1-TEV-NIa-Pro cleavage (L)-tTA with IFNAR2.2-TEV, in HTL5B8.1 cells) (human; tobacco etch virus) (UniProt P17181); test: cell-based or functional assay

Compound: Nc1ncnc2c1ncn2[C@@H]1O[C@H](COP(=O)(O)OP(=O)(O)OP(=O)(O)O)[C@@H](O)[C@H]1O [ATP]
induction of reporter gene activity by an agonist of other, endogenous GPCRs (P2Y1, P2Y2) (ADRB2 [1]): Stimulation of another GPCR pathway was irrelevant

Compound: Brc1c(NC2=NCCN2)ccc2nccnc12 [UK14,304]
agonist response, UK14,304 compared with isoproterenol (ADRA2C; varying concentrations of agonist): respond to much lower concentration of UK14,304 than isoproterenol | agonist effect on the receptor (ADRB1; any concentration used, FIG. 11A): no effect | agonist effect on the receptor (ADRB2 [2]; any concentration used, FIG. 11B): no effect

Compound: Cl.NCCc1ccc(O)c(O)c1 [dopamine, dopamine HCl]
maximal response, induction of reporter gene expression over the background ([3]; ARRB1-TEV-NIa protease fusion): 2.1 fold | maximal response, induction of reporter gene expression over the background ([3]; ARRB2-TEV-NIa protease fusion): 2.7 fold | induction of beta-galactosidase reporter gene activity (ADRB2 [4]): remained unchanged | maximal response, induction of reporter gene expression over the background (DRD2 [5]): approximately 60 fold | maximal response, increase in reporter gene activity (DRD2 [6]): approximately 30 fold | induction of luciferase activity (DRD2 [7]): 3.5 fold

Compound: CNC[C@H](O)c1ccc(O)c(O)c1 [epinephrine]
maximal response, induction of reporter gene expression over the background (ADRA1A; ADRA1A-GRPR 23aa Tail-tTA): approximately 102 fold | maximal response, increase in reporter gene activity (ADRA1A; ADRA1A-GRPR 42aa Tail-tTA): approximately 14 fold

Compound: ARRB2-TEV-NIa protease fusion (from UniProt P32121 1-409)
fold increase in reporter gene activity (luciferase), dopamine [9]: 30 fold

Compound: human interferon-alpha (ligand)
fold increase in reporter gene activity (luciferase), 5000 U/ml IFN-α [16]: 15 fold

Compound: human interferon-beta (from UniProt P01574 22-187) (ligand)
fold increase in reporter gene activity (luciferase), 5000 U/ml IFN-β [16]: 10 fold

More lines, main results first:

inhibition of receptor response by antagonist (ADRB1): markedly inhibited
Compound: C=CCc1ccccc1OCC(O)CNC(C)C (centres unmarked) [alprenolol]
inhibition of receptor response by antagonist (ADRA2A): only a modest inhibitory effect at the highest concentrations tested | inhibition of receptor response by antagonist (ADRA2C; antagonist experiments, FIGS. 11F to 11J): only a modest inhibitory effect at the highest concentrations tested | inhibition of receptor response by antagonist (ADRA2B): only a modest inhibitory effect at the highest concentrations tested

maximal response, induction of reporter gene expression over background level [8]: 4.6 fold
Compound: NCCc1c[nH]c2ccc(O)cc12 [serotonin]

inhibition of receptor response by antagonist (ADRB1): no effect
Compound: COC(=O)[C@@H]1[C@H]2C[C@H]3c4[nH]c5ccccc5c4CCN3C[C@@H]2CC[C@@H]1O [yohimbine]
inhibition of receptor response by antagonist (ADRB2 [2]; FIG. 11G): inhibition at only the very highest concentrations tested

increase in reporter gene activity [10]: 15 fold | increase in reporter gene activity ([11]; 5000 U/ml, 6 hours, CHO-K1 cells with reporter, IFNAR and STAT constructs): 3 fold | effect on reporter gene activity ([11]; CHO-K1 cells transfected with the reporter and control plasmids): no effect
Compound: IFN-α

maximal response, induction of reporter gene expression over the background [12]: approximately 40 fold
Compound: RANTES: Regulated on Activation, Normal T-Cell Expressed and Secreted, a known agonist for CCR5

maximal fold induction of reporter gene expression over the background, 1 µg/ml RANTES [13]: 40 fold
Compound: Regulated on Activation, Normal T-Cell Expressed and Secreted (RANTES) (from UniProt P13501 24-91) (ligand)

fold increase of luciferase reporter gene activity, 100 ng/ml human Transforming Growth Factor-Alpha [14]: 18.3 fold
Compound: human Transforming Growth Factor-Alpha (from UniProt P01135 40-89) (ligand)

increase of luciferase reporter gene activity [15]: 18.3 fold
Compound: human Transforming Growth Factor—Alpha: human Transforming Growth Factor-Alpha, EGFR agonist
